According to EP3811940B1, “SUBSTITUTED 4,5'-BITHIAZOLES AS INHIBITORS OF THE HUMAN DNA TOPOISOMERASE II” (Kemijski Institut, priority 2019, dated 2021):
Read-outs that look alike come from different tables or passages of the source.

Legend:
human topo IIβ = target: T1, human topo IIβ (Homo sapiens, UniProt Q02880); assay: kDNA decatenation assay catalysed by human topo IIβ; type: biochemical; details: for % Decatenated Assay 1 / % Decatenated Assay 2: % of decatenated kDNA; for % Decatenated Average: average of two assays
T1 construct: purchased Inspiralis (Norwich, UK)
Experimental: One U of human topo II (α or β) was incubated with 200 ng kDNA in a 30 µL reaction at 37°C for 30 minutes under the following conditions: 50 mM Tris HCl (pH 7.5), 125 mM NaCl, 10 mM MgCl2, 5 mM DTT, 0.5 mM EDTA, 0.1 mg/ml bovine serum albumin (BSA) and 1 mM ATP. Compounds 1 and 9 were serially diluted in DMSO and added to the reaction mixture before the addition of the enzyme. Etoposide was used as a control compound. Each reaction was then stopped by the addition of 30 µL chloroform/iso-amyl alcohol ([…]) and 30 µL Stop Dye (40 % sucrose (w/v), 100 mM Tris.HCl (pH 7.5), 10 mM EDTA, 0.5 µg/mL bromophenol blue), before being loaded on a 1% TAE gel run at 85 V for 90 minutes. Assays were performed at 4 concentrations of ligand: 3.9, 31.5, 125 and 500 µM. The final DMSO concentration in all reactions was 1 % (v/v).
Bands were visualized by the ethidium bromide staining for 15 minutes and destaining for subsequent 10 minutes. Gels were scanned using the documentation equipment (GeneGenius, Syngene, Cambridge, UK) and inhibition levels were calculated from band data obtained with gel scanning software (GeneTools, Syngene, Cambridge,UK). Experiment was performed in duplicates for all compounds.

human topo IIα = target: T2, human topo IIα (Homo sapiens, UniProt P11388); assay: human topo IIα cleavage assay (linear DNA); type: biochemical
T2 construct: purchased Inspiralis (Norwich, UK)
Experimental: To determine if compounds act as topo II poisons, cleavage assay was performed for compounds 1 and 9.
Selected compounds were tested at four concentrations: 3.9, 31.5, 125 and 500 µM. The reaction was then incubated for additional 30 minutes with 0.2 % SDS and 0.5 µg/µL proteinase K. Subsequently the reaction was stopped by adding 30 µL of chloroform/iso-amyl alcohol ([…]) and 30 µL of Stop Dye (40 % sucrose (w/v), 100 mM Tris.HCl (pH 7.5), 10 mM EDTA, 0.5 µg/mL bromophenol blue), before sample being loaded on the 1 % TAE gel run at 80 V for 2 hours.
Bands were visualized by the ethidium bromide staining for 15 minutes and destaining for subsequent 10 minutes. Gels were scanned using the documentation equipment (GeneGenius, Syngene, Cambridge, UK) and cleavage levels were calculated from the band data obtained by the gel scanning software (GeneTools, Syngene, Cambridge,UK). The human topo IIα cleavage assay was performed in collaboration with Inspiralis (Norwich, UK).

MCF-7 cells = assay: MTS cytotoxicity assay, MCF-7; type: cell-based, human; details: Homo sapiens, interval in brackets
Text: (§1) We determined the cytotoxicity of the tested compounds on human breast cancer MCF-7 and human hepatocellular carcinoma HepG2 cancer cell lines using MTS assay. Both selected human cancer cell lines are representative and well-established systems for cell-based evaluation of potential anticancer compounds. Etoposide was again used as a positive control (PC).
(§2) In the first step we performed the initial screening of compounds 1-14 at one concentration. […] Exponentially growing cells were exposed to all compounds for 24 h and the results are represented in Figure 3A.
(§3) In vitro cytotoxicity of investigated compounds was evaluated in two human cancer cell lines: the […] cell lines. The HepG2 cells (ATCC) were cultivated at 37 °C and 5 % CO2 in MEME medium (M2414, Sigma) supplemented with 10 % FBS, 2 mM L-Glutamine, 1 % NEAA, 2.2 g/L NaHCO3, 1 mM sodium pyruvate and 100 IU/mL penicillin/ streptomycin and MCF-7 (ATCC) were cultivated in Eagle's MEM medium (M5650, Sigma), supplemented with 10 % fetal bovine serum, 2 mM glutamine, and 100 IU/mL penicillin/streptomycin. After the exposure to the tested compounds the viability of HepG2 and MCF-7 cells was determined by MTS tetrazolium reduction assay. The cells were seeded onto 96-well microplates (Nunc, TermoFisher Scientific, Waltham, MA, USA) at densities of 8000 cells per well (HepG2) and 7000 cells per well (MCF-7) in […] growth medium and incubated overnight to attach. The next day, the growth medium was replaced by the fresh complete growth medium containing appropriate concentrations of the compounds. […] Finally, the absorbance was measured at wavelength of 490 nm using a Microplate Reader (Synergy MX, BioTek, Winooski, VT, USA). […] Assay was performed at 5 concentrations of each compound; 2, 25, 50, 100 and 200 µM for compounds 1, 7 and 14 and 1, 12.5, 25, 50, 100 µM for compounds 9 and 10. […] Cell viability was determined by comparing the OD (optical density) of the wells containing the cells treated with investigated compounds with those of solvent control cells and presented as % of cell viability ± SD. Experiments were performed three times independently each time in at least three replicates. EC50 values were calculated by non-linear regression analysis using GraphPad Prism 7.0 Software. Statistical significance between treated groups and the control was determined by One-way analysis of variance and Dunnett's Multiple Comparison Test.

HepG2 cells = assay: MTS cytotoxicity assay, HepG2; type: cell-based, human; details: Homo sapiens, interval in brackets
Text: as §1, §2, §3

[1] = MCF7, read-out: EC50 [µM] MCF-7 (24h), 24h exposure
[2] = MCF7, 72h exposure, read-out: EC50 [µM] MCF-7 (72h)
[3] = HepG2, read-out: EC50 [µM] HepG2 (24h), 24h exposure
[4] = HepG2, 72h exposure, read-out: EC50 [µM] HepG2 (72h)

T2 sequence (P11388 whole entry): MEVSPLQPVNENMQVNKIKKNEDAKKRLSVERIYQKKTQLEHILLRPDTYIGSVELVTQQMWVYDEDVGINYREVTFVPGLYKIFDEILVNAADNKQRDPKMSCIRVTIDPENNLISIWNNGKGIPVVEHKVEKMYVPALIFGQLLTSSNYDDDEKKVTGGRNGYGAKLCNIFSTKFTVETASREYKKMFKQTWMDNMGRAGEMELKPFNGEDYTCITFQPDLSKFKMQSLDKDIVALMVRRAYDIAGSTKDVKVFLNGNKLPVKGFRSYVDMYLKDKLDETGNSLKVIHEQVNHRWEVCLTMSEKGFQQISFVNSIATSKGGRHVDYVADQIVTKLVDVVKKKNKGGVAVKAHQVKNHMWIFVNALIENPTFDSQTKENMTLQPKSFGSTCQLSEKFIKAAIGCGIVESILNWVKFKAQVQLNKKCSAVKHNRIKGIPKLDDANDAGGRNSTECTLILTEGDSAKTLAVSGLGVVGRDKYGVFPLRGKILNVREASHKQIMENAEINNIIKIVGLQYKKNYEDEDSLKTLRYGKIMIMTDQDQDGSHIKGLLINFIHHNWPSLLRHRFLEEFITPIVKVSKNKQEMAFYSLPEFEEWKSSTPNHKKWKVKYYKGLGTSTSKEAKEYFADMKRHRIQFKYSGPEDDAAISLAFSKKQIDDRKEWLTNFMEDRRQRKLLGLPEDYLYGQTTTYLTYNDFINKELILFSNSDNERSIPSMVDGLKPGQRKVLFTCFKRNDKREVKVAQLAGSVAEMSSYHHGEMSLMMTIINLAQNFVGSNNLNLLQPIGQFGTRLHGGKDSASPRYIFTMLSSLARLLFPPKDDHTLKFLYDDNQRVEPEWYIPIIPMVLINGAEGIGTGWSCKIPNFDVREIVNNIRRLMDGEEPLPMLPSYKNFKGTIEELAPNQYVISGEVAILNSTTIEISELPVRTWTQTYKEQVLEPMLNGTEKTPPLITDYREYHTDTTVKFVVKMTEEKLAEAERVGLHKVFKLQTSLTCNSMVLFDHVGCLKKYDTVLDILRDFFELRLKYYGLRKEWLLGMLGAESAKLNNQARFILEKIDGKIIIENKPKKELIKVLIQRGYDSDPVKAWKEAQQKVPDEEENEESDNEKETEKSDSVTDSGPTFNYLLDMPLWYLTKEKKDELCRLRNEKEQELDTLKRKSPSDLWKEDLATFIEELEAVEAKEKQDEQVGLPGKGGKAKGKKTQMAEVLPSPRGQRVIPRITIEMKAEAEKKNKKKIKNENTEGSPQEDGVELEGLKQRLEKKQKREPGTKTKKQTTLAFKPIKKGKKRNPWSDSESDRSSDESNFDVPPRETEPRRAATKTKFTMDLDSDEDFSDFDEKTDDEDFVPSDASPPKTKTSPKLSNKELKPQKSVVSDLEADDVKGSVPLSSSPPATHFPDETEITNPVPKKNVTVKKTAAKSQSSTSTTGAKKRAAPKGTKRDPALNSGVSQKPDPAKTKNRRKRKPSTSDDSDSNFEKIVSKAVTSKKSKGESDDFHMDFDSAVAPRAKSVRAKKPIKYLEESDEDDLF
T1 sequence (Q02880 whole entry): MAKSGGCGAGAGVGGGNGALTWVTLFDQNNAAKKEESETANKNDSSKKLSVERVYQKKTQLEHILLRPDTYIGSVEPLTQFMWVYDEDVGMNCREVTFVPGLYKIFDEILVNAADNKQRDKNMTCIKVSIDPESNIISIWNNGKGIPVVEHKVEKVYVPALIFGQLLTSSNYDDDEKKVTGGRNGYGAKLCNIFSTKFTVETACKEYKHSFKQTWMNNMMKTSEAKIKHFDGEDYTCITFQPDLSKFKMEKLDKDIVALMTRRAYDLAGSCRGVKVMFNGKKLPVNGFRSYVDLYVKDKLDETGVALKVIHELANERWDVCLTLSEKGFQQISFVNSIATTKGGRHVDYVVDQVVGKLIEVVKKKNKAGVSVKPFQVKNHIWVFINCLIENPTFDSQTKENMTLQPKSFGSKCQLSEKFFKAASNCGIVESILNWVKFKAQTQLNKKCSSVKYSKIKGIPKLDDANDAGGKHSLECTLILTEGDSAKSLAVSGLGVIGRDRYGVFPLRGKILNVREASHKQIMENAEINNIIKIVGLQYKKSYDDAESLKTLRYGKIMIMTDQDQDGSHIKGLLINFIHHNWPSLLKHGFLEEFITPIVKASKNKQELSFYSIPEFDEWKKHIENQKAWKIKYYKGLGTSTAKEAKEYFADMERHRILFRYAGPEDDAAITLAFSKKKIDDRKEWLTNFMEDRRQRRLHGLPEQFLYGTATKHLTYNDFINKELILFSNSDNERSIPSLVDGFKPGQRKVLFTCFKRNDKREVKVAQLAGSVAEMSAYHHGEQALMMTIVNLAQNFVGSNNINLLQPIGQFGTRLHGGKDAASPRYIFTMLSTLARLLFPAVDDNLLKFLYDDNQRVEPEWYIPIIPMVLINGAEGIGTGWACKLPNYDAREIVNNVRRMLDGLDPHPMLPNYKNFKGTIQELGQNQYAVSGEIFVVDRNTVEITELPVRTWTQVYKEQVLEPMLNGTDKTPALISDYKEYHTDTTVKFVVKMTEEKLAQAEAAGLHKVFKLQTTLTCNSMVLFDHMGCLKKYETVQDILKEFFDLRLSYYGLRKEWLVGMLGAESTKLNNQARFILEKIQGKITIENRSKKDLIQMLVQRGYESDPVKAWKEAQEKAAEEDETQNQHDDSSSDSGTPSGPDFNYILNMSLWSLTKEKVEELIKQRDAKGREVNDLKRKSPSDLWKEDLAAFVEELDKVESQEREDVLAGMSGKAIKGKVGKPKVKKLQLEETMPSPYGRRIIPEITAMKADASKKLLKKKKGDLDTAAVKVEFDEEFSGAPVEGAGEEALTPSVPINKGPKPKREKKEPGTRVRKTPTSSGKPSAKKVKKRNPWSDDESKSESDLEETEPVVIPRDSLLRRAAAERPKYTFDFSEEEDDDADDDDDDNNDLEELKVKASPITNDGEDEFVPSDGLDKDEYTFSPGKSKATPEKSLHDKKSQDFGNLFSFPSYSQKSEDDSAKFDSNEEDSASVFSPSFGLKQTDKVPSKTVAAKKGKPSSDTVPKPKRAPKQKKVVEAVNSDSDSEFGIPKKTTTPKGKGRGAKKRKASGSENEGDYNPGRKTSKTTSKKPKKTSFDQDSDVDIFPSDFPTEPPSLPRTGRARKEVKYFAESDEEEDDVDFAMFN

With `COc1cc([C@@H]2c3cc4c(cc3[C@@H](O[C@@H]3O[C@@H]5CO[C@@H](C)O[C@H]5[C@H](O)[C@H]3O)[C@H]3COC(=O)[C@H]23)OCO4)cc(OC)c1O` [Etoposide, etoposide, reference compound] the “% Decatenated Assay 1” value (human topo IIβ; 3.9 µM) was 100.0%, the “% Decatenated Assay 2” value (human topo IIβ; 3.9 µM) was 100.0% and the “% Decatenated Assay 1” value (human topo IIβ; 31.5 µM) was 94.0%. For the same compound, the “% Decatenated Assay 2” value (human topo IIβ; 31.5 µM) was 92.8%, the “% Decatenated Average” value (human topo IIβ; 31.5 µM) was 93.4% and the “% Decatenated Assay 1” value (human topo IIβ; 125 µM) was 24.6%. For the same compound, the “% Decatenated Assay 2” value (human topo IIβ; 125 µM) was 23.1%, the “% Decatenated Average” value (human topo IIβ; 125 µM) was 23.9% and the “% Decatenated Assay 1” value (human topo IIβ; 500 µM) was 150%. The “% Decatenated Assay 2” value (human topo IIβ; 500 µM) was 14.4%, the “% Decatenated Average” value (human topo IIβ; 500 µM) was 14.7% and the “% Linear Average” value (human topo IIα; 3.9 µM) was 17.32%. The “% Linear” value (human topo IIα; 3.9 µM, % Linear) was 11.88%, the “% Linear” value (human topo IIα; 3.9 µM, first % Linear column) was 22.76% and the “% Linear Average” value (human topo IIα; 31.5 µM) was 34.63%. The “% Linear” value (human topo IIα; 31.5 µM, % Linear) was 36.26%, the “% Linear” value (human topo IIα; 31.5 µM, first % Linear column) was 33.00% and the “% Linear Average” value (human topo IIα; 125 µM) was 41.13%. For the same compound, the “% Linear” value (human topo IIα; 125 µM, % Linear) was 36.91%, the “% Linear” value (human topo IIα; 125 µM, first % Linear column) was 45.35% and the “% Linear Average” value (human topo IIα; 500 µM) was 45.71%. The “% Linear” value (human topo IIα; 500 µM, % Linear) was 48.40%, the “% Linear” value (human topo IIα; 500 µM, first % Linear column) was 43.03% and the “amount of linear DNA (poison activity)” value (human topo IIα; titration 3.9, 31.5, 125 and 500 µM, result in words) was “increased amount of linear DNA”. For the same compound, the EC50 (MCF-7 cells; [1]) was 320 µM, the EC50 (MCF-7 cells; [2]) was 12.6 µM and the EC50 (HepG2 cells; [3]) was 196 µM. It also gave an EC50 (HepG2 cells; [4]) of 25.8 µM.

With `CC(=O)Nc1ccc(Nc2nc(-c3sc(NC(C)=O)nc3C)cs2)cc1` [Compound 9, N-(4-((2'-acetamido-4'-methyl-[4,5'-bithiazol]-2-yl)amino)phenyl)acetamide] the “% Decatenated Assay 1” value (human topo IIβ; 3.9 µM) was 87.0%, the “% Decatenated Assay 2” value (human topo IIβ; 3.9 µM) was 75.6% and the “% Decatenated Average” value (human topo IIβ; 3.9 µM) was 81.3%. The “% Decatenated Assay 1” value (human topo IIβ; 31.5 µM) was 80.1%, the “% Decatenated Assay 2” value (human topo IIβ; 31.5 µM) was 73.3% and the “% Decatenated Average” value (human topo IIβ; 31.5 µM) was 76.7%. The inhibition at 125 µM (human topo IIβ; 125 µM) was 73.9%, the “% Decatenated Assay 1” value (human topo IIβ; 125 µM) was 30.5% and the “% Decatenated Assay 2” value (human topo IIβ; 125 µM) was 21.7%. The “% Decatenated Average” value (human topo IIβ; 125 µM) was 26.1%, the inhibition at 500 µM (human topo IIβ; 500 µM) was 88.6% and the “% Decatenated Assay 1” value (human topo IIβ; 500 µM) was 17.5%. For the same compound, the “% Decatenated Assay 2” value (human topo IIβ; 500 µM) was 5.3%, the “% Decatenated Average” value (human topo IIβ; 500 µM) was 11.4% and the “% Linear Average” value (human topo IIα; 3.9 µM) was 6.26%. For the same compound, the “% Linear” value (human topo IIα; 3.9 µM, % Linear) was 7.03%, the “% Linear” value (human topo IIα; 3.9 µM, first % Linear column) was 5.49% and the “% Linear Average” value (human topo IIα; 31.5 µM) was 7.26%. For the same compound, the “% Linear” value (human topo IIα; 31.5 µM, % Linear) was 6.75%, the “% Linear” value (human topo IIα; 31.5 µM, first % Linear column) was 7.77% and the “% Linear Average” value (human topo IIα; 125 µM) was 4.72%. The “% Linear” value (human topo IIα; 125 µM, % Linear) was 4.60%, the “% Linear” value (human topo IIα; 125 µM, first % Linear column) was 4.84% and the “% Linear Average” value (human topo IIα; 500 µM) was 2.60%. The “% Linear” value (human topo IIα; 500 µM, % Linear) was 2.25%, the “% Linear” value (human topo IIα; 500 µM, first % Linear column) was 2.95% and the EC50 (MCF-7 cells; [1]) was 15 µM. For the same compound, the EC50 (MCF-7 cells; [2]) was 13.8 µM, the EC50 (HepG2 cells; [3]) was 73.5 µM and the EC50 (HepG2 cells; [4]) was 23.5 µM.

With `Cc1nc(N)sc1-c1csc(Nc2ccc(C(F)(F)F)cc2)n1` [Compound 1, 4'-methyl-N2-(4-(trifluoromethyl)phenyl)-[4,5'-bithiazole]-2,2'-diamine] the “% Decatenated Assay 1” value (human topo IIβ; 3.9 µM) was 87.3%, the “% Decatenated Assay 2” value (human topo IIβ; 3.9 µM) was 95.5% and the “% Decatenated Average” value (human topo IIβ; 3.9 µM) was 91.3%. For the same compound, the inhibition at 31.5 µM (human topo IIβ; 31.5 µM) was 20.8%, the “% Decatenated Assay 1” value (human topo IIβ; 31.5 µM) was 78.6% and the “% Decatenated Assay 2” value (human topo IIβ; 31.5 µM) was 79.7%. The “% Decatenated Average” value (human topo IIβ; 31.5 µM) was 79.2%, the “% of inhibition of decatenation” value (human topo IIβ; 125 µM) was “fully inhibited” and the “% Decatenated Assay 1” value (human topo IIβ; 125 µM) was 0%. For the same compound, the “% Decatenated Assay 2” value (human topo IIβ; 125 µM) was 0%, the “% Decatenated Average” value (human topo IIβ; 125 µM) was 0% and the “% of inhibition of decatenation” value (human topo IIβ; 500 µM) was “fully inhibited”. For the same compound, the “% Decatenated Assay 1” value (human topo IIβ; 500 µM) was 0%, the “% Decatenated Assay 2” value (human topo IIβ; 500 µM) was 0% and the “% Decatenated Average” value (human topo IIβ; 500 µM) was 0%. The “% Linear Average” value (human topo IIα; 3.9 µM) was 6.81%, the “% Linear” value (human topo IIα; 3.9 µM, % Linear) was 5.57% and the “% Linear” value (human topo IIα; 3.9 µM, first % Linear column) was 8.05%. For the same compound, the “% Linear Average” value (human topo IIα; 31.5 µM) was 7.04%, the “% Linear” value (human topo IIα; 31.5 µM, % Linear) was 7.77% and the “% Linear” value (human topo IIα; 31.5 µM, first % Linear column) was 6.32%. For the same compound, the “% Linear Average” value (human topo IIα; 125 µM) was 2.94%, the “% Linear” value (human topo IIα; 125 µM, % Linear) was 2.85% and the “% Linear” value (human topo IIα; 125 µM, first % Linear column) was 3.02%. For the same compound, the “% Linear Average” value (human topo IIα; 500 µM) was 2.72%, the “% Linear” value (human topo IIα; 500 µM, % Linear) was 2.98% and the “% Linear” value (human topo IIα; 500 µM, first % Linear column) was 2.45%. The EC50 (MCF-7 cells; [1]) was 65 µM, the EC50 (MCF-7 cells; [2]) was 59.5 µM and the EC50 (HepG2 cells; [3]) was 72.8 µM. It also gave an EC50 (HepG2 cells; [4]) of 46.8 µM.
